Assay results as given in patent US20220402862A1 (Intellia Therapeutics, Inc., priority 2019, published 2022).
Values joined by “and” are separate entries in the source; they are usually repeats but may differ in a detail not shown here. Identical values can stand only once.

How the values were obtained:
mouse TTR gene = experiment: In vivo editing in mouse liver, sgRNA targeting TTR (G282 or G502), % indel by NGS; set-up: species or system CD-1 female mice
Protocol: (§1) CD-1 female mice ranging from 6-10 weeks of age were used in each study. Animals were weighed and grouped according to body weight for preparing dosing solutions based on group average weight. LNPs were dosed via the lateral tail vein in a volume of 0.2 mL per animal (approximately 10 mL per kilogram body weight). The animals were periodically observed for adverse effects for at least 24 hours post dose. For studies measuring in vivo editing in liver, CD-1 female mice were dosed at 0.1 mg/kg unless otherwise noted. Animals were euthanized at 6 or 7 days by ex sanguination via cardiac puncture under isoflurane anesthesia. Liver tissue was collected from each animal for DNA extraction and analysis. Blood was collected into serum separator tubes or into tubes containing buffered sodium citrate for plasma as described herein. Cohorts of mice were measured for editing by Next-Generation Sequencing (NGS).
(§2) In brief, to quantitatively determine the efficiency of editing at the target location in the genome, genomic DNA was isolated and deep sequencing was utilized to identify the presence of insertions and deletions introduced by gene editing.
(§3) PCR primers were designed around the target site (e.g., within B2M), and the genomic area of interest was amplified. Additional PCR was performed according to the manufacturer's protocols (Illumina) to add the necessary chemistry for sequencing. The amplicons were sequenced on an Illumina MiSeq instrument. The reads were aligned to the mouse or rat reference genome (e.g., GRCm38) after eliminating those having low quality scores. The resulting files containing the reads were mapped to the reference genome (BAM files), where reads that overlapped the target region of interest were selected and the number of wild type reads versus the number of reads which contain an insertion, substitution, or deletion was calculated.
(§4) The editing percentage (e.g., the “indel efficiency” or “percent indels”) was defined as the total number of sequence reads with insertions or deletions over the total number of sequence reads, including wild type.
(§5) We assessed in vivo editing efficiency for materials delivered with formulations including various amine lipid compounds. Editing was measured using either G282 (SEQ ID No: 1) which targets the mouse TTR gene or G650 (SEQ ID No. 2) which targets the mouse B2M gene. Lipids described above were assessed for efficacy through in vivo editing experiments. LNPs were formulated at a 1:1 or 1:1.3 w/w ratio of sgRNA to Cas9 mRNA, and at an N/P ratio of about 6. Molar concentrations of lipids in the lipid component of the LNPs are used at mol % amine lipid/DSPC/cholesterol/PEG-2k-DMG of 50/9/38/3. The final LNPs were characterized to determine the encapsulation efficiency, polydispersity index, and average particle size according to the analytical methods provided above. Analysis of average particle size, polydispersity (PDI), total RNA content and encapsulation efficiency of RNA are shown in Table 2.
To assess whether the editing was dose responsive, experiments were performed in vivo at various LNP dose levels. Cas9 mRNA of Example 120 was formulated as LNPs with an sgRNA targeting TTR (G282, SEQ ID NO: 1; or G502, SEQ ID NO: 4).
We assessed in vivo delivery by measuring editing efficiency for materials delivered with formulations that included various amine lipid compounds. Cas9 mRNA (SEQ ID NO: 6) was formulated as LNPs with an sgRNA targetting the TTR mouse gene (SEQ ID NO: 4). LNPs were formulated at a 1:2 w/w ratio of sgRNA to Cas9 mRNA, and at an N/P ratio of about 6. Molar concentrations of lipids in the lipid component of the LNPs are used at mol % amine lipid/DSPC/cholesterol/PEG-2k-DMG of 50/9/38/3. The final LNPs compositions were characterized and analyzed as described in Example 120. Analysis of average particle size, polydispersity (PDI), total RNA content and encapsulation efficiency of RNA are shown in Table 6.

mouse B2M gene [1] = experiment: In vivo editing in mouse liver, sgRNA targeting B2M (G650), % indel by NGS; set-up: species or system CD-1 female mice; conditions: for Editing Mean % Indel: mouse liver, guide G650, Experiment 104; for Liver editing (%): mouse, experiment 108
Protocol: as §1, §2, §3, §4, §5
Alternatively, Cas9 mRNA of Example 120 was formulated as LNPs with an sgRNA targeting B2M (G650, SEQ ID NO: 2) These LNPs were formulated at a w/w ratio of a sgRNA and Cas9 mRNA as indicated in Table 4. The LNPs were formulated using the cross flow procedure with lipid molar compositions of mol % amine lipid/DSPC/cholesterol/PEG-2k-DMG of 50/9/38/3 and an N/P ratio of 6.0. […]
CD-1 female mice were dosed i.v. at 0.1, 0.3, or 1 mg/kg and assessed for editing in liver, spleen, and bone marrow.

Transthyretin (TTR) [2] = experiment: Serum TTR ELISA in mice after LNP dosing; type: in vivo, CD-1 female mice
How it was run: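 Female CD-1 mice, 6–10 weeks, given LNPs by tail-vein injection (~10 mL/kg), 0.1 mg/kg unless noted; serum taken at day 6 or 7 by cardiac puncture. Total mouse TTR by ELISA on sera diluted 10,000-fold (0.1 mg/kg) or 10,000- and 2,500-fold (0.3 mg/kg).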

Transthyretin (TTR) [3] = experiment: Serum TTR measurement in rats after LNP dosing; type: in vivo, Sprague Dawley female rats; conditions: Experiment 109; for Serum TTR % TSS: rat serum TTR relative to TSS control; for Serum TTR: rat serum, G534 sgRNA + Cas9 mRNA LNP
mouse B2M gene [4] = experiment: In vivo editing in mouse bone marrow, G650 sgRNA, % indel by NGS; set-up: species or system CD-1 female mice; conditions: G650, i.v. dose 1 mg/kg, experiment 108
Protocol: [Worded in the source for another target; this target is reported under the same test.] as §2, §3, §4
The in vivo delivery to liver, spleen, and bone marrow was assessed by measuring editing efficiency for materials delivered with formulations including various amine lipid compounds. […]

[5] = LNP i.v. 0.03 mg/kg, guide G502, Experiment 105
[6] = LNP i.v. 0.1 mg/kg, guide G282, Experiments 101-103
[7] = LNP i.v. 0.1 mg/kg, guide G502, Experiment 105
[8] = LNP i.v. 0.3 mg/kg, guide G282, Experiments 101-103
[9] = mouse serum TTR relative to TSS control, guide G282 experiments
[10] = mouse serum, guide G282 experiments, ELISA
[11] = mouse, LNP i.v. 0.03 mg/kg, guide G502, Experiment 105
[12] = mouse, LNP i.v. 0.03 mg/kg, guide G502, Experiment 105, relative to TSS control
[13] = mouse, LNP i.v. 0.1 mg/kg, guide G282, Experiments 101-103
[14] = mouse, LNP i.v. 0.1 mg/kg, guide G282, Experiments 101-103, relative to TSS control
[15] = mouse, LNP i.v. 0.1 mg/kg, guide G502, Experiment 105
[16] = mouse, LNP i.v. 0.1 mg/kg, guide G502, Experiment 105, relative to TSS control
[17] = mouse, LNP i.v. 0.3 mg/kg, guide G282, Experiments 101-103
[18] = mouse, LNP i.v. 0.3 mg/kg, guide G282, Experiments 101-103, relative to TSS control

Compound: CCCCCCCCCCOC(=O)CCCCCCCC(=O)OCC(COC(=O)CCC(OCCCCCCCC)OCCCCCCCC)COC(=O)OCCCN(CC)CC (stereo not shown) [Compound 59, 1-(3-((4,4-bis(octyloxy)butanoyl)oxy)-2-((((3-(diethylamino)propoxy)carbonyl)oxy)methyl)propyl) 9-decyl nonanedioate]
- Editing Mean % Indel (mouse TTR gene; [5]): 11.8%
- Editing Mean % Indel (mouse TTR gene; [6]): 32.4%
- Editing Mean % Indel (mouse TTR gene; [7]): 35.64%
- Editing Mean % Indel (mouse TTR gene; [8]): 63.9%
- Editing Mean % Indel (mouse B2M gene [1]; LNP i.v. 0.1 mg/kg): 21.2%
- Editing Mean % Indel (mouse B2M gene [1]; LNP i.v. 0.3 mg/kg): 51.6%
- Serum TTR % TSS (Transthyretin (TTR) [2]; [9]): 40% and 57% and 66%
- Serum TTR (Transthyretin (TTR) [2]; [10]): 367 µg/mL and 431 µg/mL and 604 µg/mL
- Serum TTR (Transthyretin (TTR) [2]; [11]): 909 µg/mL
- Serum TTR % TSS (Transthyretin (TTR) [2]; [12]): 83%
- Serum TTR (Transthyretin (TTR) [2]; [13]): 300 µg/mL
- Serum TTR % TSS (Transthyretin (TTR) [2]; [14]): 49%
- Serum TTR (Transthyretin (TTR) [2]; [15]): 467 µg/mL
- Serum TTR % TSS (Transthyretin (TTR) [2]; [16]): 42%
- Serum TTR (Transthyretin (TTR) [2]; [17]): 43 µg/mL
- Serum TTR % TSS (Transthyretin (TTR) [2]; [18]): 7%
- Serum TTR % TSS (Transthyretin (TTR) [3]; G534, i.v. 0.1 mg/kg): 69.4 % TSS
- Serum TTR % TSS (Transthyretin (TTR) [3]; G534, i.v. 0.3 mg/kg): 20.9 % TSS
- Serum TTR (Transthyretin (TTR) [3]; i.v. 0.1 mg/kg): 1124.0 µg/mL
- Serum TTR (Transthyretin (TTR) [3]; i.v. 0.3 mg/kg): 337.9 µg/mL

Compound: CCCCC/C=C\C/C=C\CCCCCCCC(=O)OCC(COC(=O)CC12CC3CC(CC(C3)C1)C2)COC(=O)OCCCN(CC)CC (stereo not shown) [Compound 107, 3-(2-((3 r,5 r, 7r)-adamantan-1-yl)acetoxy)-2-((((3-(diethylamino)propoxy)carbonyl)oxy)methyl)propyl (9Z,12Z)-octadeca-9,12-dienoate]
- Liver editing (%) (mouse B2M gene [1]; G650, i.v. dose 0.1 mg/kg): 0.52%
- Liver editing (%) (mouse B2M gene [1]; G650, i.v. dose 0.3 mg/kg): 1.04%
- Liver editing (%) (mouse B2M gene [1]; G650, i.v. dose 1 mg/kg): 5.92%
- % Editing in BM (mouse B2M gene [4]): 0.32%

Compound: CCCCCCCCCC(C)OC(=O)CCCCCCCC(=O)OCC(COC(=O)CCC(OCCCCCCCC)OCCCCCCCC)COC(=O)OCCCN(CC)CC (stereo not shown) [Compound 94, 1-(344,4-bis(octyloxy)butanoyl)oxy)-2-((((3-(diethylamino)propoxy)carbonyl)oxy)methyl)propyl) 9-(undecan-2-yl) nonanedioate]
- Editing Mean % Indel (mouse TTR gene; [5]): 19.76%
- Editing Mean % Indel (mouse TTR gene; [7]): 43.52%
- Serum TTR % TSS (Transthyretin (TTR) [2]; [9]): 38%
- Serum TTR (Transthyretin (TTR) [2]; [10]): 286 µg/mL
- Serum TTR (Transthyretin (TTR) [2]; [11]): 605 µg/mL
- Serum TTR % TSS (Transthyretin (TTR) [2]; [12]): 55%
- Serum TTR (Transthyretin (TTR) [2]; [15]): 352 µg/mL
- Serum TTR % TSS (Transthyretin (TTR) [2]; [16]): 32%
- Serum TTR % TSS (Transthyretin (TTR) [3]; G534, i.v. 0.1 mg/kg): 39.5 % TSS
- Serum TTR % TSS (Transthyretin (TTR) [3]; G534, i.v. 0.3 mg/kg): 8.2 % TSS
- Serum TTR (Transthyretin (TTR) [3]; i.v. 0.1 mg/kg): 639.5 µg/mL
- Serum TTR (Transthyretin (TTR) [3]; i.v. 0.3 mg/kg): 132.9 µg/mL

Compound: CCCCC/C=C\C/C=C\CCCCCCCC(=O)OCC(COC(=O)CCC(OCCCCCCCC)OCCCCCCCC)COC(=O)NCC1CCCN1CC (stereo not shown) [Compound 40, 3-((4,4-bis(octyloxy)butanoyl)oxy)-2-(((((1-ethylpyrrolidin-2-yl)methyl)carbamoyl)oxy)methyl)propyl (9Z,12Z)-octadeca-9,12-dienoate]
- Editing Mean % Indel (mouse TTR gene; [6]): 30.2%
- Editing Mean % Indel (mouse TTR gene; [8]): 68.0%
- Serum TTR % TSS (Transthyretin (TTR) [2]; [9]): 44%
- Serum TTR (Transthyretin (TTR) [2]; [10]): 393 µg/mL
- Serum TTR (Transthyretin (TTR) [2]; [13]): 443 µg/mL
- Serum TTR % TSS (Transthyretin (TTR) [2]; [14]): 48%
- Serum TTR (Transthyretin (TTR) [2]; [17]): 80 µg/mL
- Serum TTR % TSS (Transthyretin (TTR) [2]; [18]): 9%

Compound: CCCCC/C=C\C/C=C\CCCCCCCC(=O)OCC(COC(=O)CCC(OCCCCCCCC)OCCCCCCCC)COC(=O)OCC1CCCN(C)C1 (stereo not shown) [Compound 53, 3-((4,4-bis(octyloxy)butanoyl)oxy)-2-(((((1-methylpiperidin-3-yl)methoxy)carbonyl)oxy)methyl)propyl (9Z,12Z)-octadeca-9,12-dienoate]
- Editing Mean % Indel (mouse TTR gene; [6]): 8.6%
- Editing Mean % Indel (mouse TTR gene; [8]): 48.2%
- Serum TTR % TSS (Transthyretin (TTR) [2]; [9]): 47%
- Serum TTR (Transthyretin (TTR) [2]; [10]): 413 µg/mL
- Serum TTR (Transthyretin (TTR) [2]; [13]): 619 µg/mL
- Serum TTR % TSS (Transthyretin (TTR) [2]; [14]): 67%
- Serum TTR (Transthyretin (TTR) [2]; [17]): 231 µg/mL
- Serum TTR % TSS (Transthyretin (TTR) [2]; [18]): 25%
